Assay results taken from patent publication US6583309B1 (University of Medicine and Dentistry of New Jersey, priority 1999, dated 2003).

Each compound was assayed against TAR RNA (assay: In vitro binding of resin-bound compounds to TAR RNA (OD260 of unbound RNA)). Settings: in vitro assay; compounds of formula I on TentaGel beads incubated with TAR RNA overnight at 4° C. in TK buffer; read-out: Kd (nM), binding constants.
Set-up: species or system HIV
Description: Binding of compounds of formula I and V to TAR RNA was measured by evaluating their inhibition of TAR-TAT complex formation in the presence of increasing levels of the compound to be tested. The compounds of formula I were tested in an in vitro assay; the compounds of formula V were tested in an in vivo assay.
The TAR RNA used corresponds to the minimal sequence required for TAT responsiveness in vivo. This 29-residue oligonucleotide has the sequence: 5′-[…]-3′ (SEQ ID NO.: 1). TAR RNA was prepared by in vitro transcription. A “top strand” single-stranded DNA oligomer having the sequence 5′-TAATACGACTCACTATAG-3′ (SEQ ID NO.: 2) was annealed to a “bottom strand” single-stranded DNA template having the following sequence: 3′-[…]-5′ (SEQ ID NO.: 3), thereby generating a double-stranded region corresponding to a promoter sequence recognized by T7 RNA polymerase. Transcription was carried out in transcription buffer (40 mM Tris-HCl, pH 8.1, 1 mM spermidine, 0.01% Triton®X-100, 5 mM dithiothreitol, 4 mM each of ATP, GTP, CTP, and UTP at 37° C. for 4 to 5 hours. Reactions were performed in a volume of 0.02 ml containing 8 pmole of template (top strand annealed to bottom strand) and 40 to 60 units of T7 RNA polymerase. Transcription was terminated by adding an equal volume of loading buffer (9M urea, 1 mmol EDTA, 0.1M bromophenol blue in 1XTBE buffer; TBE is 45 mmol trisborate at pH 8). Product RNA was purified by electrophoresis through a denaturing 20% polyacrylamide gel containing 8M urea. RNA was extracted from the gel, precipitated, dissolved in dithylpyrocarbonate-treated water, and stored at −20° C. until used.
In vitro assay conditions: Compounds AA-DU were synthesized on TentaGel S—NH2 (4.6 mmole). All Fmoc-amino acids were purchased from Bachem (Torrance, Calif.). 1-hydroxybenzotriazole (HOBT) and diisopropylcarbodiimide (DIPCDI) were obtained from Aldrich Chemical Co., Milwalkee, Wis. Piperidine and trifluoroacetic acid were purchased from Applied Biosystems Division, Perkin-Elmer. Compounds AA-DU were synthesized manually according to standard solid-phase peptide synthesis protocols. Coupling efficiencies of residues at each step were monitored by Kaiser test. Deprotection of trimer peptides was carried out in 10% water in trifluoroacetic acid (1 mL) for 16 hours at room temperature. After filtration of solvents, the resin was washed with water (1 mL×4), DMF (1 mL×4), dichloromethane (1 mL×4), and dried under reduced pressure. The compounds attached to the resin (10 beads) were placed in an Eppendorf tube and washed with TK buffer ([…]). The beads were suspended in TK buffer ([…]) and incubated with TAR RNA ([…]) overnight at 4° C. The suspension was centrifuged and the supernatant containing unbound RNA was transferred to a cuvette for OD260 measurements. The UV absorbance was measured by a Shimadzu UV-1601 spectrometer. Equilibrium concentrations of RNA were determined from these measurements. Given that the initial concentrations of ligand and RNA are known, and assuming simple bimolecular receptor/substrate binding, dissociation constant (KD) was calculated from straightforward equations.

Going from `NCCCCCN(CC(=O)N[C@H](CCCCN)COC(N)=O)C(=O)OC[C@@H](N)CCCCN` [Compound BB, Carbamic acid 6-amino-2-{2-[(5-amino-pentyl)-(2,6-diamino-hexyloxycarbonyl)-amino]-acetylamino}-hexyl ester] to `NCCCC[C@H](N)COC(=O)N(CCCCN)CC(=O)N[C@@H](CCCCN)COC(N)=O` [Compound CS, Carbamic acid 6-amino-2-{2-[(4-amino-butyl)-(2,6-diamino-hexyloxycarbonyl)-amino]-acetylamino}-hexyl ester], the Kd rises from 256 nM to 491 nM (1.9-fold).

`NCCCCCNCC(=O)N[C@H](CCCCN)COC(=O)N[C@@H](CCCCN)COC(N)=O` [Compound CE, Carbamic acid 6-amino-2-{6-amino-2-[2-(5-amino-pentylamino)-acetylamino]-hexyloxycarbonylamino}-hexyl ester] and `NCCCCNCC(=O)N[C@H](CCCCN)COC(=O)N[C@H](CCCCN)COC(N)=O` [Compound AG, Carbamic acid 6-amino-2-{6-amino-2-[2-(4-amino-butylamino)-acetylamino]-hexyloxycarbonylamino}-hexyl ester] are within 1.5-fold of each other in Kd: 301 nM for the first, 403 nM for the second.

Going from `NCCCC[C@H](N)COC(=O)N[C@H](CCCCN)COC(=O)N[C@@H](CCCCN)COC(N)=O` [Compound CA, Carbamic acid 6-amino-2-[6-amino-2-(2,6-diamino-hexyloxycarbonylamino)-hexyloxycarbonylamino]-hexyl ester] to `NCCCC[C@H](N)COC(=O)N[C@@H](CCCCN)COC(=O)N[C@H](CCCCN)COC(N)=O` [Compound AJ, Carbamic acid 6-amino-2-[6-amino-2-(2,6-diamino-hexyloxycarbonylamino)-hexyloxycarbonylamino]-hexyl ester], the Kd rises from 460 nM to 4310 nM (9.4-fold). The first binds more tightly here.

Going from `NCCCCCCCNCC(=O)N(CCCCCCCN)CC(=O)N[C@@H](CCCCN)COC(N)=O` [Compound DP, Carbamic acid 6-amino-2-(2-{(7-amino-heptyl)-[2-(7-amino-heptylamino)-acetyl]-amino}-acetylamino)-hexyl ester] to `NCCCCCCCNCC(=O)N(CCCCCN)CC(=O)N[C@@H](CCCCN)COC(N)=O` [Compound DG, Carbamic acid 6-amino-2-{2-[[2-(7-amino-heptylamino)-acetyl]-(5-amino-pentyl)-amino]-acetylamino}-hexyl ester], the Kd falls from 774 nM to 235 nM (3.3-fold).

First: NCCCCCNCC(=O)N[C@@H](CCCCN)C(=O)N[C@H](CCCCN)COC(N)=O [Compound BX, Carbamic acid 6-amino-2-{6-amino-2-[2-(5-amino-pentylamino)-acetylamino]-hexanoylamino}-hexyl ester]
Second: NCCCCNCC(=O)N[C@H](CCCCN)COC(=O)N[C@@H](CCCCN)COC(N)=O [Compound CG, Carbamic acid 6-amino-2-{6-amino-2-[2-(4-amino-butylamino)-acetylamino]-hexyloxycarbonylamino}-hexyl ester]
The Kd of the first is 3-fold lower: 202 nM for the first, 603 nM for the second. The first binds more tightly here.

Going from `NCCCC[C@H](COC(N)=O)NC(=O)OC[C@@H](CCCCN)NC(=O)OC[C@H](N)CCC(N)=O` [Compound AI, Carbamic acid 6-amino-2-[6-amino-2-(2-amino-4-carbamoyl-butoxycarbonylamino)-hexyloxycarbonylamino]-hexyl ester] to `NCCCC[C@@H](COC(N)=O)NC(=O)OC[C@H](CCCCN)NC(=O)OC[C@H](N)CCC(N)=O` [Compound CR, Carbamic acid 6-amino-2-[6-amino-2-(2-amino-4-carbamoyl-butoxycarbonylamino)-hexyloxycarbonylamino]-hexyl ester], the Kd rises from 603 nM to 981 nM (1.6-fold).

First: NCCCC[C@H](COC(N)=O)NC(=O)OC[C@H](CCCCN)NC(=O)[C@H](N)CCCCN (stereo in doubt) [Compound AM, Carbamic acid 6-amino-2-[6-amino-2-(2,6-diamino-hexanoylamino)-hexyloxycarbonylamino]-hexyl ester]
Second: NCCCC[C@@H](COC(N)=O)NC(=O)OC[C@H](CCCCN)NC(=O)[C@H](N)CCCCN [Compound CM, Carbamic acid 6-amino-2-[6-amino-2-(2,6-diamino-hexanoylamino)-hexyloxycarbonylamino]-hexyl ester]
The Kd of the first is 2.7-fold lower: 183 nM for the first, 491 nM for the second. The first binds more tightly here.

`NCCCC[C@@H](COC(N)=O)NC(=O)CN(CCCCN)C(=O)[C@@H](N)CCCCN` [Compound CU, Carbamic acid 6-amino-2-{2-[(4-amino-butyl)-(2,6-diamino-hexanoyl)-amino]-acetylamino}-hexyl ester] and `NCCCCCCCN(CC(=O)N[C@H](CCCCN)COC(N)=O)C(=O)OC[C@H](N)CCCCN` [Compound BL, Carbamic acid 6-amino-2-{2-[(7-amino-heptyl)-(2,6-diamino-hexyloxycarbonyl)-amino]-acetylamino}-hexyl ester] are the same in Kd: 718 nM for the first, 718 nM for the second.

Compared with `NCCCC[C@H](COC(N)=O)NC(=O)[C@H](CCCCN)NC(=O)OC[C@H](N)CCC(N)=O` [Compound DU, Carbamic acid 6-amino-2-[6-amino-2-(2-amino-4-carbamoyl-butoxycarbonylamino)-hexanoylamino]-hexyl ester], `NCCCCCN(CC(=O)N[C@H](CCCCN)COC(N)=O)C(=O)OC[C@H](N)CCC(N)=O` [Compound BJ, Carbamic acid 6-amino-2-{2-[(2-amino-4-carbamoyl-butoxycarbonyl)-(5-amino-pentyl)-amino]-acetylamino}-hexyl ester] is 3.2-fold lower in Kd: 639 nM for the first, 202 nM for the second.

Going from `N=C(N)NCCC[C@H](N)COC(=O)N(CCCCCCCN)CC(=O)N[C@@H](CCCCN)COC(N)=O` [Compound DR] to `NCCCCCCCNCC(=O)N(CCCCN)CC(=O)N[C@@H](CCCCN)COC(N)=O` [Compound CX, Carbamic acid 6-amino-2-(2-{(4-amino-butyl)-[2-(7-amino-heptylamino)-acetyl]-amino}-acetylamino)-hexyl ester], the Kd falls from 460 nM to 256 nM (1.8-fold).

Going from `NCCCC[C@@H](COC(N)=O)NC(=O)OC[C@H](CCCCN)NC(=O)[C@@H](N)CCCCN` (stereo in doubt) [Compound CL, Carbamic acid 6-amino-2-[6-amino-2-(2,6-diamino-hexanoylamino)-hexyloxycarbonylamino]-hexyl ester] to `NCCCC[C@H](COC(N)=O)NC(=O)OC[C@H](CCCCN)NC(=O)[C@@H](N)CCCCN` [Compound AL, Carbamic acid 6-amino-2-[6-amino-2-(2,6-diamino-hexanoylamino)-hexyloxycarbonylamino]-hexyl ester], the Kd rises from 130 nM to 2720 nM (21-fold).

First: NCCCC[C@H](COC(N)=O)NC(=O)[C@H](CCCCN)NC(=O)[C@H](N)CCCCN [Compound BW, Carbamic acid 6-amino-2-[6-amino-2-(2,6-diamino-hexanoylamino)-hexanoylamino]-hexyl ester]
Second: NCCCCNCC(=O)N[C@@H](CCCCN)COC(=O)N[C@H](CCCCN)COC(N)=O [Compound AP, Carbamic acid 6-amino-2-{6-amino-2-[2-(4-amino-butylamino)-acetylamino]-hexyloxycarbonylamino}-hexyl ester]
The Kd of the first is 2.2-fold lower: 678 nM for the first, 1490 nM for the second.

Going from `NCCCCCN(CC(=O)N[C@@H](CCCCN)COC(N)=O)C(=O)CNCCCCN` [Compound DH, Carbamic acid 6-amino-2-{2-[[2-(4-amino-butylamino)-acetyl]-(5-amino-pentyl)-amino]-acetylamino}-hexyl ester] to `N=C(N)NCCC[C@H](N)COC(=O)N[C@H](CCCCN)COC(=O)N[C@H](CCCCN)COC(N)=O` [Compound AH, Carbamic acid 6-amino-2-[6-amino-2-(2-amino-5-guanidino-pentyloxycarbonylamino)-hexyloxycarbonylamino]-hexyl ester], the Kd falls from 7690 nM to 460 nM (17-fold). The second binds more tightly here.

`N=C(N)NCCC[C@H](N)COC(=O)N[C@H](CCCCN)COC(=O)N[C@@H](CCCCN)COC(N)=O` [Compound CH, Carbamic acid 6-amino-2-[6-amino-2-(2-amino-5-guanidino-pentyloxycarbonylamino)-hexyloxycarbonylamino]-hexyl ester] was tested, and the Kd was 865 nM.
